# In patent US12234222B2, “Piperazine amide derivative, preparation method therefor, and use thereof in medicine” (ZHEJIANG HISUN PHARMACEUTICAL CO., LTD., priority 2019, dated 2025):
# Tests used:
# [1] = molecular target: Human RET protein (RET kinase) (Homo sapiens (Human), UniProt P07949); assay: RET kinase activity, HTRF KinEASE-TK TR-FRET assay; type: biochemical; conditions: inhibition of RET kinase; 9 concentrations 3200 nM~0.008 nM, 2% DMSO
# Procedure: Test Example 1. Determination of the Activity of the Compound of the Present Disclosure on RET Kinase
# (§1) In this method, HTRF®KinEASE-TK Tyrosine Kinase Kit (Cat. No. 62TK0PEB) of Cisbio was used to determine the degree of phosphorylation of biotinylated polypeptide substrates by time-resolved fluorescence energy transfer (TR-FRET). Human RET protein (RET kinase) was purchased from Carna bioscience (Japan, Cat. No. 08-159-5 μg).
# (§2) The experimental steps are as follows: • (1) The test compound (the compound of the present disclosure, and compound 164 in WO2018017983A1 as a control) was dissolved in 100% DMSO to a final concentration of 10 mM. • (2) 4 μL of the test compound solution prepared in step (1) was dissolved with 46 μL of 100% DMSO, and the solution obtained in this step was numbered as No. 2. • (3) No. 2 solution was subjected to subsequent gradient dilution with a dilution factor of 5 times (i.e. 20 μL of 100% DMSO was added to 5 μL of the compound), a total of 9 gradients, numbered 3 to 11.
# Note: No. 2 was not used for the dilution in step (4).
# (§3) (Unless otherwise specified, the following steps need to be carried out on ice) • (4) The buffer provided in the kit (Cisbio, Cat. No. 62TK0PEB) was used to continuously serially dilute the solutions numbered from 3 to 11 with a dilution factor of 20 times (that is, adding 19 μL of buffer to the solutions numbered from 3 to 11). At this time, the final concentration range of the test compound in the system No. 3 to 11 was 3200 nM˜0.008 nM (9 gradients), and the final concentration of DMSO was 2%. • (5) 9 compound solutions of gradient concentration in step (4) were added into a 384-well plate in order according to their concentration at 4 μL per well, and two duplicate wells were set. • (6) 2 μL of human RET protein was added to each well and incubated on ice for 10 minutes. • (7) 2 μL of ATP (Sigma #A7699) and 2 μL of biotinylated polypeptide substrate (Cisbio, Cat. No. 62TK0PEB) were added to each well to start the phosphorylation reaction, and incubated at 37° C. for half an hour. • (8) 5 μL of anti-phosphotyrosine antibody coupled with europium compound (provided in the kit, Cat. No. 62TK0PEB) and 5 μL of streptavidin coupled with modified allophycocyanin XL665 (Cisbio, Cat. No. 62TK0PEB) were added to each well. • (9) The plate was continued to incubate for 1 hour at room temperature. After the incubation, the TF-FRET mode of the microplate reader (BMG Labtech, model: FLUOStar Omega) was adopted to measure the fluorescence intensity at an excitation wavelength of 304 nm and emission wavelengths of 615 nm and […] in each well. The ratio would be calculated automatically. • (10) By comparing the fluorescence intensity ratio in the control group, the inhibition rate of the compound at each concentration was calculated, and GraphPad Prism 5 was used to perform curve fitting with logarithmic concentration-inhibition rate to calculate the IC50 value of the compound.
# KDR kinase = KDR kinase (Homo sapiens (Human), UniProt P35968); assay: KDR control kinase activity, HTRF KinEASE-TK TR-FRET assay; type: biochemical; conditions: inhibition of KDR kinase; 16000 nM~0.04 nM, 2% DMSO
# KDR kinase, sequence (P35968 20-1356): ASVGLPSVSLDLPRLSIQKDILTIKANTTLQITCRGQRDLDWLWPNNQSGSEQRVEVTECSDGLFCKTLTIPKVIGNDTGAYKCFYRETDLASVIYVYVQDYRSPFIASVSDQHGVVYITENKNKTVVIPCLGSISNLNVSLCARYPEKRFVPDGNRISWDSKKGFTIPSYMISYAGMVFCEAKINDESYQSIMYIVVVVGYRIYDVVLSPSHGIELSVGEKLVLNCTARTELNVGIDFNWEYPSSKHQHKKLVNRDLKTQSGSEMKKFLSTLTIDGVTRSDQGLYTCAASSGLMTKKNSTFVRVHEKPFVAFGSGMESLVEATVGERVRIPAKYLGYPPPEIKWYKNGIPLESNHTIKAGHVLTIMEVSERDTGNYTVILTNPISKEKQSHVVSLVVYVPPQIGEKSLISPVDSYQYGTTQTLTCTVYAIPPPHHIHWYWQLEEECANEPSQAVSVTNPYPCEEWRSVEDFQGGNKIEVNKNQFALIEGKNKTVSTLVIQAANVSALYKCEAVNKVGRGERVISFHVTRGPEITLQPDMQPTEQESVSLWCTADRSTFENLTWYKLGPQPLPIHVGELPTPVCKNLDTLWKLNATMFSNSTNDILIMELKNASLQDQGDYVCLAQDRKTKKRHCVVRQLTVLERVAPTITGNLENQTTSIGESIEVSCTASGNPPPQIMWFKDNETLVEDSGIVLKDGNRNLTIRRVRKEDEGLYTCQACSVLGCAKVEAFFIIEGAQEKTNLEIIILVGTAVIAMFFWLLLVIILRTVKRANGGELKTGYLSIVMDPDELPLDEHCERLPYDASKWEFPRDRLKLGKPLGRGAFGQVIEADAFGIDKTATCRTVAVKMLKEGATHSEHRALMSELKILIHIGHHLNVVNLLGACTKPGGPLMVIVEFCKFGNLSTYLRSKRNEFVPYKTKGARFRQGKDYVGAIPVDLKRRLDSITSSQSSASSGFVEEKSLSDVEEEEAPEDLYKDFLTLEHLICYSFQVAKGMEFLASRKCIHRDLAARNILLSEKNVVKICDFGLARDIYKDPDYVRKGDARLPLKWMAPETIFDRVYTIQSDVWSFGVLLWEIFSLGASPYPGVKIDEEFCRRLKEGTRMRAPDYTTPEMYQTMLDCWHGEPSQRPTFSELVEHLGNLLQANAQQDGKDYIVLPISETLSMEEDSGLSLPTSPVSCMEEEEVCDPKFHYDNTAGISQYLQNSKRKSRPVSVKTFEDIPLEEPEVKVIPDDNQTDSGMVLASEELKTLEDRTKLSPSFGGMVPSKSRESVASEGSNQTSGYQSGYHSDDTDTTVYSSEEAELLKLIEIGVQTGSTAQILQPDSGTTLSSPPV
# Procedure: as §1, §2, §3
# The selected control kinase is another receptor tyrosine kinase, KDR, with similar structure to RET kinase, purchased from Carna bioscience (Japan, Cat. No. 08-191-5 μg). The step of gradient dilution was the same as that of RET kinase, and the final concentration range of the test compound in the reaction system was 16000 nM˜0.04 nM (No. 2-10 solutions were used for the gradient dilution in step 4). Other reaction conditions were the same as above, and the final concentration of DMSO was 2%. The calculation method for the IC50 value of KDR kinase inhibition by the test compound was the same as the calculation method for the IC50 value of RET kinase inhibition.
# Human RET protein (RET kinase), sequence (P07949 29-1114): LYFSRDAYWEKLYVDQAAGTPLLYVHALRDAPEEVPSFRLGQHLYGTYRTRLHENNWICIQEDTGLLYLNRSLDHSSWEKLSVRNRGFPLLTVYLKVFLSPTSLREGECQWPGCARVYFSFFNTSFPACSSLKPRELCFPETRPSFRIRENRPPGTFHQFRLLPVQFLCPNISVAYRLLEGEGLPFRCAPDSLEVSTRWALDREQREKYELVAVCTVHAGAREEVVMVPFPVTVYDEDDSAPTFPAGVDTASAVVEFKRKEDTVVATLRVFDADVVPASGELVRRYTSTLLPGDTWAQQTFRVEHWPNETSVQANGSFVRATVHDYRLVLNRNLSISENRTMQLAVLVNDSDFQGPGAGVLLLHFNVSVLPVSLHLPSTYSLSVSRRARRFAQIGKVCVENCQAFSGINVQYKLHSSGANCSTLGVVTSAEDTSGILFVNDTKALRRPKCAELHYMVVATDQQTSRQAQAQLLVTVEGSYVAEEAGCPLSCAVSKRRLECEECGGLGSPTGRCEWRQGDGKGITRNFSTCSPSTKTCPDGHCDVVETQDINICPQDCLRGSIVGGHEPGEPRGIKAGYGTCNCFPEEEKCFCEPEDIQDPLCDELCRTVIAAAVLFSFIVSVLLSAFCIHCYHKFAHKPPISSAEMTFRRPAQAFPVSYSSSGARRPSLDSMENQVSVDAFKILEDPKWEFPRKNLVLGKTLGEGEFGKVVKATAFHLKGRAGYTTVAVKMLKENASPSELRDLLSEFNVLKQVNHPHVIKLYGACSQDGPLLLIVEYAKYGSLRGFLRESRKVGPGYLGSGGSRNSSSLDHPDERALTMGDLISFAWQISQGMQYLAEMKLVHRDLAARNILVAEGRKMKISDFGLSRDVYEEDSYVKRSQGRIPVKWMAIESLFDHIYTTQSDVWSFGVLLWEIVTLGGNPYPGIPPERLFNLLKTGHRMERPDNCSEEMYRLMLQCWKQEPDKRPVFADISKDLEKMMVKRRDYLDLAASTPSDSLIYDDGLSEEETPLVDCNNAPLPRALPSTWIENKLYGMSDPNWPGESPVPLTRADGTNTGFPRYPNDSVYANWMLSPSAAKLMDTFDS
Compound,IC50 [1],IC50 (KDR kinase)
"Cc1cc(Nc2cc(C)[nH]n2)nc(N2CCC(C(=O)N[C@@H](C)c3ccc(-n4cc(F)cn4)nc3)CC2)c1 [Compound 164, reference compound]",73 nM,2300 nM
"Cc1cc(Nc2cc(C)[nH]n2)nc(N2CC3CCC(C2)N3C(=O)c2ccc(-c3cnn(C)c3)nn2)n1 [Compound I-22, (6-(1-methyl-1H-pyrazol-4-yl)pyridazin-3-yl)(3-(4-methyl-6-((5-methyl-1H-pyrazol-3-yl)amino)pyrimidin-2-yl)-3,8-diazabicyclo[3.2.1]octane-8-yl)methanone]",2 nM,221 nM
Cc1cc(Nc2cc(C)[nH]n2)nc(N2C3CCC2CN(C(=O)c2ccc(-n4cc(C#N)cn4)nc2)C3)n1 [Compound I-9],8.6 nM,304 nM
"Cc1cc(Nc2cc(C)[nH]n2)nc(N2CC3CCC(C2)N3C(=O)c2ccc(-c3cnn(C)c3)nc2)n1 [Compound I-24, (6-(1-methyl-1H-pyrazol-4-yl)pyridin-3-yl)(3-(4-methyl-6-((5-methyl-1H-pyrazol-3-yl)amino)pyrimidin-2-yl)-3,8-diazabiciyclo [3.2.1]octane-8-yl) methanone]",8.1 nM,374 nM
"Cc1cc(Nc2cc(C)[nH]n2)nc(N2CC3CCC(C2)N3C(=O)c2ccc(-c3ccncc3)nc2)n1 [Compound I-28, [2,4′-bipyridin]-5-yl(3-(4-methyl-6-((5-methyl-1H-pyrazol-3-yl)amino)pyrimidin-2-yl)-3,8-diazabicyclo [3.2.1]octane-8-yl)methanone]",2.6 nM,467 nM
"Cc1cc(Nc2cc(C(F)(F)F)nc(N3CC4CCC(C3)N4C(=O)c3ccc(-n4cc(F)cn4)nn3)n2)n[nH]1 [Compound I-16, (6-(4-fluoro-1H-pyrazol-1-yl)pyridazin-3-yl)(3-(4-((5-methyl-1H-pyrazol-3-yl)amino)-6-(trifluoromethyl)pyrimidin-2-yl)-3,8-diazabicyclo[3.2.1]octane-8-yl)methanone]",8 nM,738 nM
"Cc1cc(Nc2cc(C)[nH]n2)nc(N2CC3CCC(C2)N3C(=O)c2ccc(-n3cc(F)cn3)nc2)n1 [Compound I-4, (6-(4-fluoro-1H-pyrazol-1-yl)pyridin-3-yl)(3-(4-methyl-6-((5-methyl-1H-pyrazol-3-yl)amino)pyrimidin-2-yl)-3,8-diazabicyclo [3.2.1]octane-8-yl) methanone]",1.4 nM,80 nM
"Cc1cc(Nc2nc(N3CC4CCC(C3)N4C(=O)c3ccc(-n4cc(F)cn4)nc3)nc3ccccc23)n[nH]1 [Compound I-5, (6-(4-fluoro-1H-pyrazol-1-yl)pyridin-3-yl)(3-(4-((5-methyl-1H-pyrazol-3-yl)amino)quinazoline-2-yl)-3,8-diazabicyclo[3.2.1]octane-8-yl)methanone]",6.2 nM,149 nM
"COC(=O)c1cc(Nc2cc(C)[nH]n2)nc(N2CC3CCC(C2)N3C(=O)c2ccc(-n3cc(F)cn3)nc2)n1 [Compound I-11, Methyl 2-(8-(6-(4-fluoro-1H-pyrazol-1-yl)nicotinoyl)-3,8-diazabicyclo[3.2.1]octane-3-yl)-6-((5-methyl-1H-pyrazol-3-yl)amino)pyrimidin-4-carboxylate]",24.7 nM,1020 nM
"Cc1cc(Nc2cc(C)[nH]n2)nc(N2CC3CCC(C2)N3C(=O)c2ccc(-n3cc(F)cn3)nn2)n1 [Compound I-13, (6-(4-fluoro-1H-pyrazol-1-yl)pyridazin-3-yl)(3-(4-methyl-6-((5-methyl-1H-pyrazol-3-yl)amino)pyrimidin-2-yl)-3,8-diazabicyclo[3.2.1]octane-8-yl)methanone]",1.5 nM,78 nM
"Cc1cc(Nc2cc(C)[nH]n2)nc(N2CC3COCC(C2)N3C(=O)c2ccc(-n3cc(F)cn3)nc2)n1 [Compound I-7, (6-(4-fluoro-1H-pyrazol-1-yl)pyridin-3-yl)(7-(4-methyl-6-((5-methyl-1H-pyrazol-3-yl)amino)pyrimidin-2-yl)-3-oxa-7,9-diazabicyclo [3.3.1]nonane-9-yl)methanone]",10.3 nM,391 nM
"Cc1cc(Nc2cc(C)[nH]n2)nc(N2CCN(C(=O)c3ccc(-n4cc(F)cn4)nc3)C3(CC3)C2)n1 [Compound I-12, (6-(4-fluoro-1H-pyrazol-1-yl)pyridin-3-yl)(7-(4-methyl-6-((5-methyl-1H-pyrazol-3-yl)amino)pyrimidin-2-yl)-4,7-diazaspiro[2.5]octane-4-yl)methanone]",0.6 nM,180 nM
"Cc1cc(Nc2cc(C)[nH]n2)nc(N2CC3CCC(C2)N3C(=O)c2ccc(-c3ccc(F)cc3)nc2)n1 [Compound I-25, (6-(4-fluorophenyl)pyridin-3-yl)(3-(4-methyl-6-((5-methyl-1H-pyrazol-3-yl)amino)pyrimidin-2-yl)-3,8-diazabicyclo[3.2.1]octane 8-yl)methanone]",5.6 nM,260 nM
"Cc1cc(Nc2cc(C)[nH]n2)nc(N2CCN(C(=O)c3ccc(-n4cc(F)cn4)nc3)[C@@H](C)C2)n1 [Compound I-2, (S)-(6-(4-fluoro-1H-pyrazol-1-yl)pyridin-3-yl)(2-methyl-4-(4-methyl-6-((5-methyl-1H-pyrazol-3-yl)amino)pyrimidin-2-yl)piperazin-1-yl)methanone]",11.8 nM,851 nM
"Cc1cc(Nc2cc(C)[nH]n2)nc(N2C3CCC2CN(C(=O)c2ccc(-n4cc(F)cn4)nn2)C3)c1 [Compound I-30, (6-(4-fluoro-1H-pyrazol-1-yl)pyridazin-3-yl)(8-(4-methyl-6-((5-methyl-1H-pyrazol-3-yl)amino)pyridin-2-yl)-3,8-diazabicyclo[3.2.1]octane-3-yl)methanone]",1.8 nM,95 nM
"Cc1cc(Nc2cc(C)[nH]n2)nc(N2CC3CCC(C2)N3C(=O)c2ccc(N3CC4C(C3)C4(C)C)nc2)n1 (centres unmarked) [Compound I-10, (6-(6,6-dimethyl-3-azabicyclo [3.1.0]hexane-3-yl)pyridin-3-yl)(3-(4-methyl-6-((5-methyl-1H-pyrazol-3-yl)amino)pyrimidin-2-yl)-3,8-diazabicyclo[3.2.1]octane-8-yl)methanone]",7.3 nM,1550 nM
"Cc1cc(Nc2cc(CO)nc(N3CC4CCC(C3)N4C(=O)c3ccc(-n4cc(F)cn4)nc3)n2)n[nH]1 [Compound I-20, (6-(4-fluoro-1H-pyrazol-1-yl)pyridin-3-yl)(3-(4-(hydroxymethyl)-6-((5-methyl-1H-pyrazol-3-yl)amino)pyrimidin-2-yl)-3,8-diazabicyclo[3.2.1]octane-8-yl)methanone]",3 nM,1550 nM
"Cc1cc(Nc2cc(C)[nH]n2)nc(N2CCN(C(=O)c3ccc(-n4cc(F)cn4)nc3)CC2)n1 [Compound I-1, (6-(4-fluoro-1H-pyrazol-1-yl)pyridin-3-yl)(4-(4-methyl-6-((5-methyl-1H-pyrazol-3-yl)amino)pyrimidin-2-yl)piperazin-1-yl)methanone]",12.5 nM,1130 nM
"Cc1cc(Nc2cc(C(=O)O)nc(N3CC4CCC(C3)N4C(=O)c3ccc(-n4cc(F)cn4)nc3)n2)n[nH]1 [Compound I-19, 2-(8-(6-(4-fluoro-1H-pyrazol-1-yl)nicotinoyl)-3,8-diazabicyclo[3.2.1]octane-3-yl)-6-((5-methyl-1H-pyrazol-3-yl)amino)pyrimidin-4-formic acid]",25.6 nM,2760 nM
